From patent publication US7156881B2, “Counteracting bioprosthetic calcification” (The Children's Hospital of Philadelphia, priority 2002, dated 2007)
Marks after values point to notes of the source that are not given here.

Columns and labels:
[1] = tested on: porcine aortic valve cusps; experiment: 21-day rat subdermal implants, Ca content by atomic absorption: cusp; type: in vivo, Sprague-Dawley rats; settings: Cusp implanted
Description: (§1) A series of bioprosthetic material samples were prepared, in order to compare the anti-calcification efficacy of TGA-MABP with TGA crosslinking alone. The material used were porcine aortic valve cusps, porcine aortic wall, and bovine pericardium. These materials were obtained fresh at slaughter and transported to the laboratory on ice.

[2] = tested on: bovine pericardial calcification; settings: TGA-crosslinking methodology, related art; cited from earlier work
[3] = Rat weight in 21-day subdermal implant study; settings: 21-day rat subdermal implants
Description: All materials were rinsed thoroughly with normal saline, and 1 cm^2 pieces of aortic wall, pericardium, or individual cusp leaflets crosslinked with 100 mM TGA with the inclusion of 20 mM MABP, as described above with daily replacement of solutions for 7 days. After thorough rinse with normal saline, biomaterials were surgically implanted in dorsal subdermal pouches of 75–80 g male Sprague-Dawley rats as previously described. Animals were sacrificed after 21 days, implants recovered, rinsed, dried, and analyzed for Ca content by atomic absorption spectroscopy (AA).

[4] = tested on: bovine pericardium; experiment: 21-day rat subdermal implants, Ca content by atomic absorption: pericardium; type: in vivo, Sprague-Dawley rats; settings: Pericardium implanted
Description: as §1

[5] = tested on: porcine aortic wall; experiment: 21-day rat subdermal implants, Ca content by atomic absorption: aortic wall; type: in vivo, Sprague-Dawley rats; settings: Aortic wall implanted
Description: as §1

[6] = TGA cross-linking of bovine pericardium, shrink temperature (Ts) by DSC; type: physicochemical; settings: for shrink temperature (Ts): 100 mM TGA, borate mannitol buffer pH 7.4, room temperature
Description: Bovine pericardium was obtained fresh at slaughter and transported to the lab on ice. After extensive rinsing with normal saline, the tissue was cut into 1 cm squares and segregated into 5 groups for crosslinking as described below. Reactions were carried out at room temperature on a rocker platform for 7 days with daily replacement of each solution with one freshly prepared in borate mannitol buffer (9.33 g/l sodium tetraborate, −˜2 g mannitol to pH 7.4). Pericardial samples were removed from the reaction vessels daily, rinsed and stored individually at 4° C. in normal saline for shrink temperature determination (Ts) by Differential Scanning […] (DSC) analysis at the end of the experiment.
MABP stock solution was prepared daily by adding water, neutralizing with NaHCO3, and diluting to one of the three desired concentrations (2 mM, 20 mM, 100 mM) in boratemannitol buffer. TGA then was added to each solution to a final concentration of 100 mM TGA. Two additional groups were treated solely with 100 mM TGA in the same buffer for 7 days, and one of these treated again on day 8 with 100 mM MABP in buffer.
Further experiments were done testing the anti-calcification potential of MABP co-attachment utilized the maximum non-interfering condition tested: 20 mM MABP and 100 mM TGA in borate-mannitol buffer, pH 7.4. Those experimental data are shown in Table III and graphically in FIG. 1.

[7] = tested on: aortic wall segment of a bioprosthetic implant; settings: TGA-crosslinking methodology, related art; cited from earlier work
[8] = Kinetics of epoxy-ring opening with different nucleophiles (triglicidyl amine in water); type: physicochemical; settings: 20° C.; for K * 10^3 / Reacted substrate: pH ca. 7; for rate of reaction with TGA-epoxy (k): pH 7.4, 20 mM of MABP
From the text: The bioprosthetic materials treated by both MABP and TGA show a significant improvement in anti-calcification ability. Consequently, it is believed that the MABP has successfully met the above-mentioned criteria, i.e., the reactive functional group is active enough to dominate the co-attachment reaction between MABP and TGA, and to cause MABP to attach to a TGA epoxide more completely.

[9] = Kinetics of epoxy-ring opening with different nucleophiles (t-butyl glycidyl ether in water); type: physicochemical; settings: for reactivity relative to nucleophiles without a sulfur atom: 20° C. and pH of about 7; for Reacted substrate / k · 10^3: 20° C., pH ca. 7
From the text: Pursuant to the present invention, the functional groups need to cleave an epoxy ring, and nucleophilic groups are illustrative in this respect.

[10] = substrate 0.1 M, epoxide 0.3 M, time of reaction 5 min
[11] = substrate 0.1 M, epoxide 0.3 M, time of reaction 15 min
[12] = substrate 0.1 M, epoxide 0.3 M, time of reaction 3 h
[13] = substrate 0.1 M, epoxide 0.3 M, time of reaction 19 h
[14] = substrate 0.2 M, epoxide 0.1 M, time of reaction 2 h
[15] = substrate 0.1 M, epoxide 0.3 M, time of reaction 48 h
[16] = substrate 0.4 M, epoxide 0.3 M, time of reaction 120 h
[17] = substrate 0.2 M, epoxide 0.06 M, time of reaction 1.75 h
[18] = substrate 0.1 M, epoxide 0.3 M, time of reaction 120 h
[19] = substrate 0.2 M, epoxide 0.1 M, time of reaction 1 h

For `C1OC1CN(CC1CO1)CC1CO1` (centres unmarked) [TGA, triglycidyl amine], the Ca ([1]; rat subdermal implants, prev. exp.) is given as 2.07 +/− 0.31 μg/mg dry wt, the “inhibiting bovine pericardial calcification” value [2] is given as “less effective” and the Rat weight ([3]; Aortic wall implanted) is given as 247.8 ± 7.9 g. For the same molecule, the Rat weight ([3]; Pericardium implanted) was 268.2 ± 9.9 g, the Ca [4] was 11.23 +/− 4.74 μg/mg dry wt and the Ca [5] was 7.73 +/− 0.90 μg/mg dry wt. The “shrink temperature (Ts)” value ([6]; Day 1 of crosslinking) was 72.6 +/− 1.0, the “shrink temperature (Ts)” value ([6]; Day 2 of crosslinking) was 77.4 +/− 0.5 and the “shrink temperature (Ts)” value ([6]; Day 3 of crosslinking) was 78.2 +/− 0.3. For the same molecule, the “shrink temperature (Ts)” value ([6]; Day 4 of crosslinking) was 79.6 +/− 0.4, the “shrink temperature (Ts)” value ([6]; Day 6 of crosslinking) was 80.2 +/− 0.3 and the “shrink temperature (Ts)” value ([6]; Day 7 of crosslinking) was 81.0 +/− 0.6. For the same molecule, the “inhibition of calcification of the aortic wall segment” value [7] was “relatively ineffective”.
With `O=CCCCC=O` [Glutaraldehyde] the Ca ([1]; 21-day rat subdermal implants) was 89.03 +/− 5.59* μg/mg dry wt and the Rat weight ([3]; Cusp implanted) was 268.8 ± 6.5 g.
In the case of `O=S(O)(O)=S` [Thiosulfate], the “K * 10^3” value [8, 10] is reported as 23000 1/mol * h, the Reacted substrate [8, 10] is reported as 30% and the “K * 10^3” value [8, 11] is reported as 17000 1/mol * h. For the same molecule, the Reacted substrate [8, 11] was 52%, the “reactivity relative to nucleophiles without a sulfur atom” value [9] was “at least twenty times more reactive” and the Reacted substrate [9, 10] was 30%. The “k · 10^3” value [9, 10] was 23 000 l/mol · h, the Reacted substrate [9, 11] was 52% and the “k · 10^3” value [9, 11] was 17 000 l/mol · h.
For `CSCCC(NC(C)=O)C(=O)O` (racemic) [N-Acetyl-DL-methionine], the “reactivity relative to nucleophiles without a sulfur atom” value [9] was “at least twenty times more reactive”, the Reacted substrate [9, 12] was 33% and the “k · 10^3” value [9, 12] was 473 l/mol · h. The Reacted substrate [9, 13] was 89% and the “k · 10^3” value [9, 13] was 488 l/mol · h.
With `O=P(O)(O)C(CS)P(=O)(O)O` [MEBP, 2-mercaptoethlidene-1,1-bisphosphonate] the “rate of reaction with TGA-epoxy (k)” value [8] was 0.035 mol⁻¹ h⁻¹, the “K * 10^3” value [8, 14] was 35 1/mol * h and the Reacted substrate [8, 14] was 0.7%.
For `c1c[nH]cn1` [Imidazole], the Reacted substrate [9, 15] was 28% and the “k · 10^3” value [9, 15] was 24 l/mol · h.
In the case of Phosphate, the Reacted substrate [9, 16] is reported as 12% and the “k · 10^3” value [9, 16] is reported as 3.9 l/mol · h.
For `CC(O)(P(=O)(O)O)P(=O)(O)O` [HEDP], the Reacted substrate [9, 16] was 5.5% and the “k · 10^3” value [9, 16] was 1.6 l/mol · h.
For `O=P(O)(O)C(CNCCS)P(=O)(O)O` [MABP, 2-(2-mercaptoethylamino)-ethylidene-1,1-bisphosphonate], the “rate of reaction with TGA-epoxy (k)” value [8] was 1.2 mol⁻¹ h⁻¹, the “K * 10^3” value [8, 17] was 1120 1/mol * h and the Reacted substrate [8, 17] was 10%. For the same molecule, the “effects on rat weight gain” value ([3]; inclusion of MABP) was “no significant effects” and the “interference of MABP with the TGA crosslinking process (DSC)” value ([6]; equimolar concentration of MABP and TGA (100 mM each) versus the other conditions) was “grossly slowed the crosslinking process”.
For `CC(=O)N[C@@H](Cc1c[nH]cn1)C(=O)O` [N-Acetyl-L-histidine], the Reacted substrate [9, 18] was 60% and the “k · 10^3” value [9, 18] was 29 l/mol · h.
For `N[C@@H](CS)C(=O)O` [Cysteine], the “K * 10^3” value [8, 19] was 1618 1/mol * h, the Reacted substrate [8, 19] was 13% and the “reactivity relative to nucleophiles without a sulfur atom” value [9] was “at least twenty times more reactive”. The Reacted substrate [9, 19] was 13% and the “k · 10^3” value [9, 19] was 1618 l/mol · h.
